Test results as given in US20070128294A1, “Treatment and prevention of liver adverse conditions using gallium” (priority 2005, published 2007).
“Also recorded” adds a separate entry of the source.

Experiments:
[1] = Serum gallium quantitation in the adjuvant arthritis study; type: in vivo, Male Lewis rats; conditions: daily oral 100 or 300 mg/kg, serum harvested one hour after final dosing
Method: Prophylactic treatment was initiated seven days prior to adjuvant injection by dosing with control vehicle or gallium maltolate (100 or 300 mg/kg gallium maltolate, containing 16 or 47 mg/kg gallium, respectively, in suspension with 1% carboxymethyl cellulose) seven days prior to adjuvant injection. Dosing was by daily oral gavage until termination. The dexamethasone-treated control animals were injected with a daily oral dose of dexamethasone (0.1 mg/kg). Body weights were measured regularly during the course of the study to track the effect of the drugs on the weight loss induced by the developing adjuvant disease, and dose volumes were adjusted accordingly. Prior to the onset of swelling, but after the establishment of systemic disease (about 7 days after adjuvant injection), caliper measurements were made of ankle joints. Ankles were measured every day until 14 days post-adjuvant injection when the rats were anesthetized and sacrificed. Serum was harvested one hour after final dosing for gallium quantitation. Hind paws, liver, and spleen were weighed, fixed, and processed for histopathologic evaluation. […] Splenic changes of inflammation, increased extramedullary hematopoiesis, and lymphoid atrophy were scored 0-5 using criteria similar to those used for scoring of inflammation. The primary endpoint was hepatomegaly, as determined by liver weight and histopathology.

[2] = system: human patient exposed to a liver-damaging agent; assay: Human patient pretreated before exposure to a liver-damaging agent, serum liver enzymes monitored; type: in vivo; conditions: oral tablet or capsule to at least 10 ng/mL serum gallium before exposure; monitored every 12 hours
Method: A human patient, prior to exposure to a liver-damaging agent, is treated with gallium in the form of gallium maltolate combined with the appropriate standard excipients and/or fillers, in tablet or capsule form. Sufficient gallium maltolate is administered to obtain at least 10 ng/mL gallium in the patient's serum. The amount of gallium maltolate plus excipients necessary to reach this level is dependent on the formulation used and the size of the patient. The patient continues to take the oral medication in an amount to build the level of serum gallium and to maintain the level of at least 10 ng/mL serum.
After a period of up to 72 hours, or when the gallium serum concentration reaches the desired level, the patient is exposed to the liver-damaging agent.
The serum levels of liver enzymes are monitored at the start of the gallium treatment and every 12 hours thereafter. In particular, levels of […] and SGOT are measured. […] Gallium maltolate administration is discontinued after risk of liver damage is terminated.

[3] = system: adjuvant arthritic rats (adjuvant-induced hepatomegaly); assay: Adjuvant-induced acute arthritis model: hepatomegaly, liver weight and histopathology; type: in vivo
Text: A preclinical animal model was used to test the efficacy of oral gallium maltolate in treating hepatomegaly associated with adjuvant-induced acute arthritis. Male Lewis rats were used in the study. The study design was described in detail by Bendele et al. (1999) Toxicologic Pathology 27(1):134-142 and by Bendele (2001) J. Musculoskel. Neuron. Interact. 1(4):377-385.
Male Lewis rats (7 per group for gallium maltolate, 4 per group for normal controls and dexamethasone-treated controls) were injected with 100 μL of Freund's complete adjuvant/lipoidal amine (FCA/LA) subcutaneously at the base of the tail on study day 0 under anesthesia. There is a rapid onset (7 d) of arthritic symptoms in this model, including ankle inflammation, liver and spleen hypertrophy, bone resorption, and mild cartilage destruction.
Prophylactic treatment was initiated seven days prior to adjuvant injection by dosing with control vehicle or gallium maltolate (100 or 300 mg/kg gallium maltolate, containing 16 or 47 mg/kg gallium, respectively, in suspension with 1% carboxymethyl cellulose) seven days prior to adjuvant injection. Dosing was by daily oral gavage until termination. The dexamethasone-treated control animals were injected with a daily oral dose of dexamethasone (0.1 mg/kg). Body weights were measured regularly during the course of the study to track the effect of the drugs on the weight loss induced by the developing adjuvant disease, and dose volumes were adjusted accordingly. Prior to the onset of swelling, but after the establishment of systemic disease (about 7 days after adjuvant injection), caliper measurements were made of ankle joints. Ankles were measured every day until 14 days post-adjuvant injection when the rats were anesthetized and sacrificed. Serum was harvested one hour after final dosing for gallium quantitation. Hind paws, liver, and spleen were weighed, fixed, and processed for histopathologic evaluation. Adjuvant arthritic ankles were given scores of 0-5 (0=normal; 5=severe) for inflammation and bone resorption. Splenic changes of inflammation, increased extramedullary hematopoiesis, and lymphoid atrophy were scored 0-5 using criteria similar to those used for scoring of inflammation. The primary endpoint was hepatomegaly, as determined by liver weight and histopathology.

[4] = system: Con A-treated mice (acute liver injury); assay: Concanavalin A-induced acute immune-mediated hepatitis; type: in vivo, Balb/c male mice; conditions: 150 mg/kg oral gavage for 4 days prior to Con A
Method: Concanavalin A (Con A) is a powerful mitogen for and activator of T lymphocytes and its intravenous administration to mice initiates an acute immune-mediated hepatitis. The effect of preemptive gallium maltolate administration on the development of acute liver injury was assessed in vivo.
Liver injury was induced by injecting 6-8 week old Balb/c male mice (weight 25 g) with Con A, 25 mg/kg in 250 μl of phosphate-buffered saline via the tail vein. The test animals were divided into three groups of 2-8 mice each: • (a) Con A treatment • (b) Vehicle (1% carboxymethyl cellulose solution in water) per oral gavage for 4 days prior to Con A treatment • (c) 150 mg/kg gallium maltolate per oral gavage for 4 days prior to Con A treatment
For determination of serum alanine aminotransferase (ALT) levels, blood was drawn from different groups of mice 16 hours after administering Con A and measured by a commercially available enzyme assay. […] (FIG. 4). Histological assessment of centrilobular necrosis of the liver was rated for severity on a scale of 0 to 3.

[5] = oral 100 and 300 mg/kg/day, adjuvant arthritic rats

SMILES: Cc1occc(=O)c1[O-].Cc1occc(=O)c1[O-].Cc1occc(=O)c1[O-].[Ga+3] [gallium maltolate]
- serum gallium levels attained [1]: dose-dependent
- serum levels of liver enzymes (SDOT and SGOT) [2]: do not rise to any significant extent
- lobular pattern of liver, histology (FIG. 3A) ([3]; 300 mg/kg/day oral for 21 days, 100x magnification): No accentuation of the lobular pattern
- signs of toxicity ([3]; daily oral dosing for 14 days, 100 or 300 mg/kg, Lewis rats): no signs of toxicity
- liver pathology, histopathological examination of the livers ([3]; gallium treated versus untreated adjuvant arthritic rats): inhibited the development of liver pathology
- liver hypertrophy (adjuvant-induced hepatomegaly) [3, 5]: marked reduction; also recorded: Significant dose-dependent protection
- spleen hypertrophy [3, 5]: marked reduction
- serum alanine aminotransferase (ALT) levels ([4]; blood 16 hours after Con A, versus the other two test groups): greatly reduced
- centrilobular necrosis of the liver, histological assessment ([4]; severity scale 0 to 3): No necrosis
